Source: patent US20160235735A1 (Teva Pharmaceutical Industries, Ltd., priority 2012, published 2016)
Several values for one entry are separate records, joined by “and”; a condition that tells them apart may be missing. Equal values may be shown once.

Columns and labels:
[1] = in vivo; cited from earlier work
[2] = tested on: MOG-induced EAE Mice; assay: MOG-induced EAE in mice: laquinimod alone or in combination with fampridine; format: in vivo, C57BL/6 mice; details: for Incidence / Mortality: 30 days; for % inhibition 3: according to GMS; for % inhibition 2: according to MMS; for % inhibition 1: according to incidence; for GMS value: group mean score; for MMS value: mean maximal score
[3] = cited from earlier work
[4] = in vivo; cited from earlier work; remark: listed apart in the source
[5] = laquinimod 10 mg/kg oral QD, compared to vehicle
[6] = laquinimod 25 mg/kg oral QD, compared to LAQ (10 mg/kg)
[7] = laquinimod 25 mg/kg oral QD, compared to vehicle
[8] = 4AP 2.5 mg/kg oral QD, compared to vehicle
[9] = 4AP 5 mg/kg oral QD, compared to vehicle

For CCN(C(=O)c1c(O)c2c(Cl)cccc2n(C)c1=O)c1ccccc1 [LAQ, Laquinimod], the oral bioavailability [1] is listed as “high oral bioavailability”, the Incidence ([2]; laquinimod 10 mg/kg oral QD) is listed as 10/15 and 15/15 and the Mortality ([2]; laquinimod 10 mg/kg oral QD) is listed as 0/15. The “% inhibition 3” value [2, 5] was 58.6%, the “% inhibition 3” value ([2]; laquinimod 10 mg/kg oral QD, compared to vehicle, listed as laquinimod) was 58.6% and the “% inhibition 2” value [2, 5] was 38.5%. For the same molecule, the “% inhibition 1” value [2, 5] was 33.3%, the GMS value ([2]; laquinimod 10 mg/kg oral QD) was 1.2 ± 1.0 and the MMS value ([2]; laquinimod 10 mg/kg oral QD) was 2.4 ± 1.9. For the same molecule, the Incidence ([2]; laquinimod 25 mg/kg oral QD) was 4/15, the Mortality ([2]; laquinimod 25 mg/kg oral QD) was 0/15 and the “% inhibition 3” value [2, 6] was 66.7%. For the same molecule, the “% inhibition 3” value [2, 7] was 86.2%, the “% inhibition 3” value ([2]; laquinimod 25 mg/kg oral QD, compared to vehicle, listed as laquinimod) was 86.2% and the “% inhibition 2” value [2, 6] was 70.8%. For the same molecule, the “% inhibition 2” value [2, 7] was 82.1%, the “% inhibition 1” value [2, 6] was 60.0% and the “% inhibition 1” value [2, 7] was 73.3%. The GMS value ([2]; laquinimod 25 mg/kg oral QD) was 0.4 ± 0.7 and the MMS value ([2]; laquinimod 25 mg/kg oral QD) was 0.7 ± 1.3.
For Nc1ccncc1 [4AP, pyridin-4-amine], the “solubility in aqueous solution” value ([3]; chloride salt) is listed as “readily soluble”, the lipid solubility ([3]; unionized form) is listed as “lipid-soluble” and the Incidence ([2]; 4AP 2.5 mg/kg oral QD) is listed as 15/15. The Mortality ([2]; 4AP 2.5 mg/kg oral QD) was 0/15, the “% inhibition 3” value [2, 8] was 24.1% and the “% inhibition 3” value ([2]; 4AP 2.5 mg/kg oral QD, compared to vehicle, listed as fampridine) was 24.1%. The “% inhibition 2” value [2, 8] was 10.2%, the “% inhibition 1” value [2, 8] was 0% and the GMS value ([2]; 4AP 2.5 mg/kg oral QD) was 2.2 ± 0.5. For the same molecule, the MMS value ([2]; 4AP 2.5 mg/kg oral QD) was 3.5 ± 0.6, the Incidence ([2]; 4AP 5 mg/kg oral QD) was 15/15 and the Mortality ([2]; 4AP 5 mg/kg oral QD) was 0/15. For the same molecule, the “% inhibition 3” value [2, 9] was 34.5%, the “% inhibition 3” value ([2]; 4AP 5 mg/kg oral QD, compared to vehicle, listed as fampridine) was 34.5% and the “% inhibition 2” value [2, 9] was 12.8%. The “% inhibition 1” value [2, 9] was 0%, the GMS value ([2]; 4AP 5 mg/kg oral QD) was 1.9 ± 0.6 and the MMS value ([2]; 4AP 5 mg/kg oral QD) was 3.4 ± 0.6. The safety issues [4] was “safety issues related to seizure induction”.
